Here are results for eight compounds from patent US8309546B2, “Morpholinopurine derivatives” (Daiichi Sankyo Company, Limited, priority 2008, dated 2012).

pIC50: −log10 of the molar value.

Assay [1] deals with T1, human mTOR (His-tagged mTOR (1362C)) (Homo sapiens, UniProt P42345).
T1 construct: the 1362 to 2549 amino acid portion on the C terminus side of human mTOR; His tag (N); made in house
Kind of assay: mTOR kinase activity inhibition assay. It counts as biochemical. Conditions: HTRF, read-out: IC50 against mTOR. An outline of the steps: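 Crude His-tagged mTOR (aa 1362–2549) from stable HEK293 cells, with 8 μg/ml biotinylated peptide in 50 mM HEPES pH 7.5, 20 mM MnCl2; compound diluted in 20 μM ATP solution, reaction 3 h at room temperature. Phospho-peptide detected by HTRF (anti-phospho-S6K Thr389 cryptate/streptavidin-XL665, overnight at 4°C), 665/620 nm ratio. IC50 derived from curve fit of % inhibition.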
On the technique in general: In TR-FRET formats the signal depends on donor and acceptor labels being close together.

The test system of assay [2] is human endometrial cancer cell strain AN3CA. Briefly: Cell growth inhibition test (MTT), AN3CA. It counts as cell-based. Conditions: AN3-CA, 72 h, 3 days culture, read-out: concentration exhibiting anti-cell effect (GI50). An outline of the steps: (§1)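 MTT read-out at 540 nm after 4 h formazan formation gives living cell count following 3-day compound exposure at 37° C, 5% CO2. Seeding: 5000 AN3CA, 1000 IGROV1, 5000 HT29 cells/well. Growth rate T/C % = 100×[(B−C)/(A−C)], with C taken before dosing; GI50 = concentration giving 50% growth.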

Assay [3] deals with human ovary cancer cell strain IGROV1. Kind of assay: Cell growth inhibition test (MTT), IGROV1. It is filed as cell-based. Conditions: IGROV-1, 72 h, IGROV1, 3 days culture, read-out: concentration exhibiting anti-cell effect (GI50). An outline of the steps:
as §1

The subject of assay [4] is human colon cancer cell strain HT29. Kind of assay: Cell growth inhibition test (MTT), HT29. It counts as cell-based. The following applies: HT-29, 72 h, HT29, 3 days culture, read-out: concentration exhibiting anti-cell effect (GI50). The method, boiled down: as §1

T1 sequence (P42345 1362-2549): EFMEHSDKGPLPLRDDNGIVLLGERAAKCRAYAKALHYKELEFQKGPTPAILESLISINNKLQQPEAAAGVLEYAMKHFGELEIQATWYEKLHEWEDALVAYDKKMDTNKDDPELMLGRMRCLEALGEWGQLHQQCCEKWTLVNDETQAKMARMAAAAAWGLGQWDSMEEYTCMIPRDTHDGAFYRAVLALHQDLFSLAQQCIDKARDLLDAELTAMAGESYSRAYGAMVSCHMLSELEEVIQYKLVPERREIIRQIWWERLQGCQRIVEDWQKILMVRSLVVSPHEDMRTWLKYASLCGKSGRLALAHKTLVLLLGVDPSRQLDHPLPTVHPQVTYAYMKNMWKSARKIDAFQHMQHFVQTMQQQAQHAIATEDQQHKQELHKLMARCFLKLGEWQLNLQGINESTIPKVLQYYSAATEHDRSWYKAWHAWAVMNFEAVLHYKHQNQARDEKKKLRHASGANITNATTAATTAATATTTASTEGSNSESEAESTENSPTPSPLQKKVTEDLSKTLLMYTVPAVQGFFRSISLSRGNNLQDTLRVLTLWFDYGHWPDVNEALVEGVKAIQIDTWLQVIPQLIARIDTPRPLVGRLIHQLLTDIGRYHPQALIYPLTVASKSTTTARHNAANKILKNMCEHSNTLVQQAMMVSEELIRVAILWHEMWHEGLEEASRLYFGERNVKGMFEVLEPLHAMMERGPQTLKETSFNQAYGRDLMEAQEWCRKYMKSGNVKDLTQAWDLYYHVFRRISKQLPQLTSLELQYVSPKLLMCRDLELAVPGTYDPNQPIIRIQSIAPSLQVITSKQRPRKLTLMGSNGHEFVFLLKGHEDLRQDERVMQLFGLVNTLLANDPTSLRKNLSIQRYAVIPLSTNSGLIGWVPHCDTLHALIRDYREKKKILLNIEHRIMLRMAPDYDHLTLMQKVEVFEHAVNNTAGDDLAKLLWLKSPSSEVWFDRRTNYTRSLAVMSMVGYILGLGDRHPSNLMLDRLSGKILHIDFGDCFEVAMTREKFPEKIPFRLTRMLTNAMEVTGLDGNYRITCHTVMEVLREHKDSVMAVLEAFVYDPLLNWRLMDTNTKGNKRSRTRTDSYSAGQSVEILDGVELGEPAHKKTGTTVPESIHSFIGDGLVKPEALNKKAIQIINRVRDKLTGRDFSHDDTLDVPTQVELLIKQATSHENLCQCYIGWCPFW

Consider `C[C@@H]1CN(c2nc3c(N4CCOCC4)nc(-c4cnc(N)nc4)nc3n2CC2CC2)CCN1C(=O)[C@@H](C)O` [Example 114, (2R)-1-{(2R)-4-[2-(2-Aminopyrimidin-5-yl)-9-(cyclopropylmethyl)-6-morpholin-4-yl-9H-purin-8-yl]-2-methylpiperazin-1-yl}-1-oxopropan-2-ol], for which the pIC50 in assay [1] was 7.52 to 8.00. The GI50 in assay [2], in assay [3] and in assay [4] was no more than 5 µM in each case.

On to `CC(=O)N1[C@H](C)CN(c2nc3c(N4CCOCC4)nc(-c4cnc(N)nc4)nc3n2CC(F)(F)F)C[C@@H]1C` [Example 115, 5-[8-(4-Acetyl-cis-3,5-dimethylpiperazin-1-yl)-6-morpholin-4-yl-9-(2,2,2-trifluoroethyl)-9H-purin-2-yl]pyrimidin-2-amine], for which the pIC50 in assay [1] is greater than 8.00. Also, the GI50 in assay [2], in assay [3] and in assay [4] was no more than 5 µM each time.

As for `C[C@@H]1CN(c2nc3c(N4CCOCC4)nc(-c4cnc(N)nc4)nc3n2CC(F)(F)F)C[C@H](C)N1C=O` [Example 116, 4-[2-(2-Aminopyrimidin-5-yl)-6-morpholin-4-yl-9-(2,2,2-trifluoroethyl)-9H-purin-8-yl]-cis-2,6-dimethylpiperazine-1-carboaldehyde], the negative logarithm of the IC50 (pIC50) in assay [1] was greater than 8.00. The GI50 in assay [2], in assay [3] and in assay [4] was no more than 5 µM each time.

On to `CCC(=O)N1CCN(c2nc3c(N4CCOCC4)nc(-c4cnc(N)nc4)nc3n2CC(F)(F)F)CC1` [Example 117, 5-[6-Morpholin-4-yl-8-(4-propionylpiperazin-1-yl)-9-(2,2,2-trifluoroethyl)-9H-purin-2-yl]pyrimidin-2-amine], for which the pIC50 in assay [1] is greater than 8.00. Besides, the GI50 in assay [2], in assay [3] and in assay [4] was no more than 5 µM in each case.

Regarding `CC(=O)N1CCN(c2nc3c(N4CCOCC4)nc(-c4cnc(N)nc4)nc3n2CC(F)(F)F)CC12CC2` [Example 119, 5-[8-(4-Acetyl-4,7-diazaspiro[2.5]oct-7-yl)-6-morpholin-4-yl-9-(2,2,2-trifluoroethyl)-9H-purin-2-yl]pyrimidin-2-amine], the pIC50 in assay [1] was 7.52 to 8.00. Besides, the GI50 in assay [2], in assay [3] and in assay [4] was no more than 5 µM throughout.

Take `C[C@H]1COCCN1c1nc(-c2cnc(N)nc2)nc2c1nc(N1CCN(S(C)(=O)=O)CC1)n2CC(F)(F)F` [Example 127, 5-{6-[(3S)-3-Methylmorpholin-4-yl]-8-[4-(methylsulfonyl)piperazin-1-yl]-9-(2,2,2-trifluoroethyl)-9H-purin-2-yl}pyrimidin-2-amine]: the pIC50 in assay [1] is greater than 8.00. Moreover, the GI50 in assay [2], in assay [3] and in assay [4] was no more than 5 µM throughout.

Turning to `CC(=O)N1CCN(c2nc3c(N4CCOC[C@@H]4C)nc(-c4cnc(N)nc4C)nc3n2CC2CC2)CC1` [Example 128, 5-{8-(4-acetylpiperazin-1-yl)-9-(cyclopropylmethyl)-6-[(3S)-3-methylmorpholin-4-yl]-9H-purin-2-yl}-4-methylpyrimidin-2-amine], the negative logarithm of the IC50 (pIC50) in assay [1] is 6.30 to 7.00. Besides, the GI50 in assay [2], in assay [3] and in assay [4] was no more than 5 µM in each case.

Take `CC(=O)N1CCN(c2nc3c(N4CCOC[C@@H]4C)nc(-c4cnc(N)nc4)nc3n2CC(C)C)CC1` [Example 129, 5-{8-(4-Acetylpiperazin-1-yl)-9-isobutyl-6-[(3S)-3-methylmorpholin-4-yl]-9H-purin-2-yl}pyrimidin-2-amine]: the pIC50 in assay [1] is 7.52 to 8.00. The GI50 in assay [2], in assay [3] and in assay [4] was no more than 5 µM each time.

By pIC50 is commonly meant the IC50 on a negative log10 scale, so that one unit is a factor of ten.
